Earlier results as cited in patent US20210137108A1, “REDUCED INHALATION HAZARD OF QUATERNARY AMMONIUM COMPOUNDS-PH DRIVEN PHYSIOLOGICAL RESPONSE” (priority 2016, published 2021).
Like-named read-outs stand apart in the source and are kept apart here.

Columns and labels:
rats = system: rats; design: key: L is lethal dose; S indicates survival
[1] = system: lung biomarkers, Clara cells, blood-air barrier; details: inhalation exposure at 35 mg per cubic meter
[2] = rats

Soidum dodecylbenzensulfonate
lethal dose / survival (rats; i.a., dose 15-20 mg/kg): S
lethal dose / survival (rats; i.a., dose 100-150 mg/kg): L
lethal dose / survival (rats; i.v., dose 15-20 mg/kg): S
lethal dose / survival (rats; i.v., dose 100-150 mg/kg): L
lethal dose / survival (rats; p.o., dose 250 mg/kg): S
lethal dose / survival (rats; p.o., dose 1250 mg/kg): L

N=C(NCCCCCCNC(=N)NC(=N)Nc1ccc(Cl)cc1)NC(=N)Nc1ccc(Cl)cc1.O=C(O)[C@H](O)[C@@H](O)[C@H](O)[C@H](O)CO.O=C(O)[C@H](O)[C@@H](O)[C@H](O)[C@H](O)CO [Chlorhexidine gluconate]
lethal dose / survival (rats; i.a., dose 15-20 mg/kg): L
lethal dose / survival (rats; i.v., dose 15-20 mg/kg): L
lethal dose / survival (rats; p.o., dose 250 mg/kg): S
lethal dose / survival (rats; p.o., dose 1250 mg/kg): S and (poor)

Benzalkonium Chloride
Clara cells and CC16 protein concentration [1]: Damage to Clara cells and a reduced concentration in CC16 protein
changes in lung biomarker levels [1]: significant changes
inflammatory response and blood-air barrier [1]: strong inflammatory response and damage to the blood-air barrier
influx of proteins from blood vessels and alveolar space [1]: massive influx of proteins
concentrations in the lungs and kidneys compared to levels observed in the liver and tissue [2]: several times higher
lethal dose / survival (rats; i.a., dose 15-20 mg/kg): L
lethal dose / survival (rats; i.v., dose 15-20 mg/kg): L
lethal dose / survival (rats; p.o., dose 250 mg/kg): S
lethal dose / survival (rats; p.o., dose 1250 mg/kg): L

Alkyldiaminoethylglycine
lethal dose / survival (rats; i.a., dose 15-20 mg/kg): S
lethal dose / survival (rats; i.a., dose 100-150 mg/kg): L
lethal dose / survival (rats; i.v., dose 15-20 mg/kg): S
lethal dose / survival (rats; i.v., dose 100-150 mg/kg): L
lethal dose / survival (rats; p.o., dose 250 mg/kg): S
lethal dose / survival (rats; p.o., dose 1250 mg/kg): L

NS(=O)(=O)O [Sulfamic Acid]
pKa: 1
